In PMC11477426, “Interaction of Tri-Cyclic Nucleobase Analogs with Enzymes of Purine Metabolism: Xanthine Oxidase and Purine Nucleoside Phosphorylase” (International Journal of Molecular Sciences, 2024) one finds Kd and Ki data, which are given here for three molecules.

The Ki is a dissociation constant, usually derived from enzyme kinetics or from competition with a known ligand. A higher Ki goes with lower affinity.

Assay [1] concerns the target T1, xanthine oxidase (XO) (Bos taurus, UniProt P80457). The assay is described as follows: isothermal titration calorimetry (estimate only); also oxidation kinetics, apparent Km […] at pH […] and […] at pH […]. Type of assay: binding. Details: gene XDH; commercial XO from bovine milk.
Assay [2] concerns the target T1, xanthine oxidase (XO). The assay is described as follows: isothermal titration calorimetry (estimate only); weak substrate in oxidation assay. Format: binding. Details: gene XDH; commercial XO from bovine milk. The source says:
isothermal titration calorimetry (estimate only); weak substrate in oxidation assay on xanthine oxidase (XO) | the endo- and exothermic processes were again observed.

Assay [3] has as its target T2, purine nucleoside phosphorylase (WT PNP) (Escherichia coli, UniProt P0ABP8).
T2 construct: gene deoD; recombinant wild-type E. coli PNP, hexamer
Kind of assay: crystal structure ([…] Å) and isothermal titration calorimetry. Format: binding.

In assay [4] the target is T1, xanthine oxidase (XO). Kind of assay: competition with oxidation of I, fluorimetric assay, pH […]. Details: gene XDH; commercial XO from bovine milk (purified enzyme). Type of assay: biochemical.

T1 sequence (P80457 2-1332): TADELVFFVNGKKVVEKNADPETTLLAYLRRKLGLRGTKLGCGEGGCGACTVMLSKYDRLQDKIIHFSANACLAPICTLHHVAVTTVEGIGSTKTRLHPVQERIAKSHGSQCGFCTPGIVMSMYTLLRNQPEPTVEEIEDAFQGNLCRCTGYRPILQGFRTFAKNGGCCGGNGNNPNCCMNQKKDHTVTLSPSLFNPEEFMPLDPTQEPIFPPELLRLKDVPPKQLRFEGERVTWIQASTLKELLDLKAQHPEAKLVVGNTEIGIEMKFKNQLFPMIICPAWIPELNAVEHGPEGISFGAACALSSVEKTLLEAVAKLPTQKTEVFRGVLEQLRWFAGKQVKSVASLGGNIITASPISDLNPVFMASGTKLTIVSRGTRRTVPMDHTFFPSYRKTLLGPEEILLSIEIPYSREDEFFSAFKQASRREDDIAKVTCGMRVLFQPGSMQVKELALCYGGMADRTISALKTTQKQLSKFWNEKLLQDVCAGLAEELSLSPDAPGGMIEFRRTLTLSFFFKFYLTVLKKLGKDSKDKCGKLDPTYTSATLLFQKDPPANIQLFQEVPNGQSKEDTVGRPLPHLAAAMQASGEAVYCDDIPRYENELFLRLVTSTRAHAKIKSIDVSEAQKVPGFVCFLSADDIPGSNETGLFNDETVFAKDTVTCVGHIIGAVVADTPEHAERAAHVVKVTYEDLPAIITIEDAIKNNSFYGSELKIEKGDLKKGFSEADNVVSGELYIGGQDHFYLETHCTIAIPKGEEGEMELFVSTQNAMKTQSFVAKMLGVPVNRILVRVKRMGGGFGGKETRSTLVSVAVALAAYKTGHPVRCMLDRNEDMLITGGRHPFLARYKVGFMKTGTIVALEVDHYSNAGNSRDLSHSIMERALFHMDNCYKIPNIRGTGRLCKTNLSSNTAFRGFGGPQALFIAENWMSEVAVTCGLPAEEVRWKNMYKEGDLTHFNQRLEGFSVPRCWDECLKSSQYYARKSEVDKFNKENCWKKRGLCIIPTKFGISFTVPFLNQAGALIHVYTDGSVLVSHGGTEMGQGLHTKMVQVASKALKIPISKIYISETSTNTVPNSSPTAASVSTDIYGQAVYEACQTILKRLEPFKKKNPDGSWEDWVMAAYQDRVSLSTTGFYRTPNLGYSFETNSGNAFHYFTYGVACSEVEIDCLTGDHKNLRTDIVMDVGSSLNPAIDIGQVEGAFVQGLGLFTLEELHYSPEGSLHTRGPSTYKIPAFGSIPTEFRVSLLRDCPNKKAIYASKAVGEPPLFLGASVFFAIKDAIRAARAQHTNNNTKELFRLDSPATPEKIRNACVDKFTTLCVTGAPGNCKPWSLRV
T2 sequence (P0ABP8 2-239): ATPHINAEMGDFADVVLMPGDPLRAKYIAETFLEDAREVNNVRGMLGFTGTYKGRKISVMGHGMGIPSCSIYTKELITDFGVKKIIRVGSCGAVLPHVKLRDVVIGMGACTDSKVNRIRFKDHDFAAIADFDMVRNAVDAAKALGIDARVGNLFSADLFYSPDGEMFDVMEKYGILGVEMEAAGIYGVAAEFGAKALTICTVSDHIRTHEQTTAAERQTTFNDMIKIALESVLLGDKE

As for `c1cn2cc3nc[nH]c3nc2n1` [I, 1,N^2-ε2APu], the Kd in assay [1] is about 2.2 nM. Consider `c1cn2c(n1)ncc1nc[nH]c12` [II, N^2,3-ε2APu], for which the figures for the Kd in assay [2] and in assay [3] were about 7.5 nM and 36200 nM, respectively. As to `O=c1[nH]c(=O)c2[nH]cnc2[nH]1` [xanthine], the affinity in assay [4], expressed as Ki, was 3000 nM.
